Source: patent publication US9487489B2, “Halogen-substituted pyrazole derivatives as pest-control agents” (BAYER CROPSCIENCE AKTIENGESELLSCHAFT, priority 2013, dated 2016)

Experiments:
[1] = system: adult castor bean ticks (Ixodes ricinus); experiment: Ixodes ricinus in vitro contact test with adult castor bean ticks (T3); conditions: after 48 h
Description: T3. Ixodes ricinus-in vitro Contact Tests with Adult Castor Bean Ticks
For the coating of the test tubes, initially 9 mg of active compound are dissolved in 1 ml of acetone p.a. and then diluted with acetone p.a. to the desired concentration. By turning and rocking on an orbital shaker (2 h of rocking rotation at 30 rpm), 250 μl of the solution are distributed homogeneously on the internal walls and the floor of a 25 ml test tube. At 900 ppm active compound solution and 44.7 cm^2 internal surface, an area dose of 5 μg/cm^2 is achieved for homogeneous distribution.
After evaporation of the solvent, the tubes are populated with 5-10 adult castor bean ticks (Ixodes ricinus), sealed with a perforated plastic lid and incubated in a horizontal position in the dark at 22° C. and 90% humidity in a climate-controlled cabinet. After 48 h, the efficacy is determined. To this end, the ticks are knocked to the floor of the tube and incubated on a hotplate at 45-50° C. for at most 5 min. Ticks which remain motionless on the floor or move in an uncoordinated manner such that they are not able to deliberately avoid the heat by climbing upwards are considered to be dead or moribund.
An efficacy of 100% means that all ticks were dead or moribund. 0% efficacy means that none of the ticks had been damaged.

[2] = system: engorged adult female cattle ticks (Boophilus microplus); experiment: Boophilus microplus injection test (BOOPMI Inj); type: in vivo; conditions: application rate 20 μg/animal; injection into abdomen; assessed after 7 days
Method in brief: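 Efficacy is read at 7 days as fertile egg laying (100% = no fertile eggs laid; 0% = all eggs fertile), with eggs of unclear fertility stored until larvae hatch at about 42 days. Five engorged adult females per dose each receive an abdominal injection of 1 μl compound dissolved in DMSO.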

[3] = logP determination by HPLC on a reversed-phase column (C18), EEC Directive 79/831 Annex V.A8; type: physicochemical
Method in brief: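 Per EEC 79/831 Annex V.A8, values derive from HPLC retention at 2.0 ml/min and 55° C on a 50*4.6 C18 column. The 10→95% acetonitrile gradient (0.1%/0.09% formic acid) lasted 4.25 min plus a 1.25 min hold; mass detection was by MSD.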

[4] = system: greenhouse red spider mite (Tetranychus urticae); experiment: Tetranychus urticae spray test, OP-resistant (TETRUR); type: in vivo; conditions: bean leaf discs, after 6 days
Method in brief: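 Percent kill, scored 6 days post-spray (0% = none dead, 100% = all dead), on Phaseolus vulgaris leaf discs infested with every life stage of the OP-resistant spider mite. Compound dissolved in acetone plus DMF, diluted to test concentration with emulsifier-containing water (1000 ppm).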

[5] = system: cattle ticks (Boophilus microplus) Parkhurst strain, SP-resistant; experiment: Boophilus microplus dip test (BOOPMI Dip); type: in vivo; conditions: application rate 100 ppm, assessed after 7 days
Method in brief: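 Adult engorged female SP-resistant Parkhurst ticks (8–10) were fully immersed in compound diluted in water from a DMSO solution, then kept in a climate-controlled room. After 7 days, fertile egg-laying was scored, with larval hatching checked at about 42 days; 100% efficacy means no fertile eggs.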

[6] = system: larvae of the mustard beetle (Phaedon cochleariae); experiment: Phaedon cochleariae spray test (PHAECO); type: in vivo; conditions: Chinese cabbage leaf discs, after 7 days
Method in brief: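 Kill of mustard beetle larvae is read as % mortality 7 days after spraying. Spray liquid: active compound in acetone plus dimethylformamide, brought up with water holding 1000 ppm alkylaryl polyglycol ether emulsifier and diluted further in emulsifier-water.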

[7] = system: adult cat fleas (Ctenocephalides felis); experiment: Ctenocephalides felis oral test (CTECFE); type: in vivo; conditions: application rate 100 ppm in citrated cattle blood; after 2 days
Method in brief: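 Mortality read at 2 days as percent of fleas killed. Compound predissolved in DMSO, diluted into citrated cattle blood and offered to roughly 20 unfed adult C. felis via parafilm membrane feeder.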

[8] = system: green peach aphid (Myzus persicae); experiment: Myzus persicae spray test (MYZUPE); type: in vivo; conditions: Chinese cabbage leaf discs, after 6 days
Method in brief: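 Chinese cabbage leaf discs infested with all aphid stages sprayed with compound in acetone/DMF with alkylaryl polyglycol ether emulsifier in water. Efficacy (% aphids killed; 100% all dead, 0% none) scored after 6 days.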

[9] = HPLC on reversed-phase column (C18), acetonitrile/water with formic acid, EEC Directive 79/831 Annex V.A8
[10] = HPLC, reversed-phase C18, acetonitrile (0.1% formic acid)/water (0.09% formic acid) gradient

Which “efficacy (dead or moribund ticks)” value ([1]; application rate 1 μg/cm^2) does the source give for `Cn1nc(C(F)(F)C(F)(F)F)c(C(F)(F)F)c1-n1cc(-c2ccc(Cl)c(C(=O)NCC(F)(F)F)c2)cn1` [Ic-23] here?
The value was 100%.

What about the “efficacy (dead or moribund ticks)” value ([1]; application rate 5 μg/cm^2) of the same compound?
Its value is 100%.

And the “efficacy (laying of fertile eggs)” value [2]?
The value was 100%.

And the logP [3, 9]?
Its logP is 4.17.

And the efficacy in % ([4]; application rate 100 g/ha)?
The efficacy in % was 100%.

And the “efficacy (laying of fertile eggs)” value [5]?
Its value is 100%.

And the efficacy in % ([6]; application rate 100 g/ha)?
Its efficacy in % is 100%.

What about the “efficacy (kill in %)” value [7] of the same compound?
The value was 100%.

What does the source list for `Cn1nc(C(F)(F)C(F)(F)F)c(C(F)(F)F)c1-n1cc(-c2ccc(F)c(C(=O)NC3CC3)c2)cn1` [Ic-37]?
efficacy (dead or moribund ticks) ([1]; application rate 1 μg/cm^2): 100%; efficacy (dead or moribund ticks) ([1]; application rate 5 μg/cm^2): 100%; efficacy (laying of fertile eggs) [2]: 100%; logP [3, 9]: 3.79; efficacy in % ([4]; application rate 100 g/ha): 100%; efficacy (laying of fertile eggs) [5]: 100%; efficacy in % ([6]; application rate 100 g/ha): 100%; efficacy (kill in %) [7]: 100%

Which “efficacy (dead or moribund ticks)” value ([1]; application rate 1 μg/cm^2) does the source give for `Cn1nc(C(F)(F)C(F)(F)F)c(C(F)(F)F)c1-n1cc(-c2ccc(Cl)c(C(=O)NC3CC3F)c2)cn1` (centres unmarked) [Ic-81] here?
Its value is 100%.

And the “efficacy (dead or moribund ticks)” value ([1]; application rate 5 μg/cm^2)?
The value was 100%.

What about the “efficacy (laying of fertile eggs)” value [2] of the same compound?
The value was 100%.

What about the logP [3, 9] of the same compound?
Its logP is 3.8.

What about the efficacy in % ([4]; application rate 100 g/ha) of the same compound?
Its efficacy in % is 100%.

And the “efficacy (laying of fertile eggs)” value [5]?
The value was 100%.

And the efficacy in % ([8]; application rate 100 g/ha)?
Its efficacy in % is 90%.

And the efficacy in % ([6]; application rate 100 g/ha)?
The efficacy in % was 100%.

And the “efficacy (kill in %)” value [7]?
The value was 100%.

With `Cn1nc(C(F)(F)C(F)(F)F)c(C(F)(F)F)c1-n1cc(-c2ccc(Cl)c(C(=O)NC3CC3)c2)cn1` [Ic-1, 2-Chloro-N-cyclopropyl-5-[2′-methyl-5′-(pentafluoroethyl)-4′-(trifluoromethyl)-2′H-1,3′-bipyrazol-4-yl]benzamide] as the compound, how does the “efficacy (dead or moribund ticks)” value ([1]; application rate 1 μg/cm^2) read?
Its value is 100%.

What about the “efficacy (dead or moribund ticks)” value ([1]; application rate 5 μg/cm^2) of the same compound?
The value was 100%.

What about the “efficacy (laying of fertile eggs)” value [2] of the same compound?
Its value is 100%.

What about the chromatographic logP [3] of the same compound?
The chromatographic logP was 3.79.

And the efficacy in % ([4]; application rate 500 g/ha)?
The efficacy in % was 100%.

What about the “efficacy (laying of fertile eggs)” value [5] of the same compound?
The value was 100%.

And the efficacy in % ([8]; application rate 500 g/ha)?
The efficacy in % was 90%.

What about the efficacy in % ([6]; application rate 500 g/ha) of the same compound?
The efficacy in % was 100%.

What about the “efficacy (kill in %)” value [7] of the same compound?
The value was 100%.

Which results are given for `Cn1nc(C(F)(F)C(F)(F)F)c(C(F)(F)F)c1-n1ccc(-c2ccc(Cl)c(C(=O)NC3(C#N)CC3)c2)c1` [Ia-1]?
efficacy (dead or moribund ticks) ([1]; application rate 1 μg/cm^2): 100%; efficacy (dead or moribund ticks) ([1]; application rate 5 μg/cm^2): 100%; efficacy (laying of fertile eggs) [2]: 100%; logP [3, 10]: 3.99; efficacy in % ([4]; application rate 100 g/ha): 100%; efficacy (laying of fertile eggs) [5]: 100%; efficacy in % ([6]; application rate 100 g/ha): 100%; efficacy (kill in %) [7]: 100%

For `Cn1nc(C(F)(F)C(F)(F)F)c(C(F)(F)F)c1-n1cc(-c2ccc(Cl)c(C(=O)NC3(C(N)=S)CC3)c2)cn1` [Ic-11], which “efficacy (dead or moribund ticks)” value ([1]; application rate 1 μg/cm^2) is on record?
Its value is 80%.

What about the “efficacy (dead or moribund ticks)” value ([1]; application rate 5 μg/cm^2) of the same compound?
Its value is 100%.

What about the “efficacy (laying of fertile eggs)” value [2] of the same compound?
The value was 100%.

And the logP [3, 9]?
The logP was 3.59.

What about the efficacy in % ([4]; application rate 100 g/ha) of the same compound?
Its efficacy in % is 90%.

What about the “efficacy (laying of fertile eggs)” value [5] of the same compound?
The value was 100%.

And the efficacy in % ([8]; application rate 100 g/ha)?
The efficacy in % was 100%.

And the efficacy in % ([6]; application rate 100 g/ha)?
The efficacy in % was 100%.

What about the “efficacy (kill in %)” value [7] of the same compound?
Its value is 100%.

What does the source list for `Cc1ncc(-c2cnn(-c3c(C(F)(F)F)c(C(F)(F)C(F)(F)F)nn3C)c2)cc1C(=O)NC1CC1` [Ic-84]?
efficacy (dead or moribund ticks) ([1]; application rate 1 μg/cm^2): 100%; efficacy (dead or moribund ticks) ([1]; application rate 5 μg/cm^2): 100%; efficacy (laying of fertile eggs) [2]: 100%; efficacy in % ([4]; application rate 500 g/ha): 100%; efficacy (laying of fertile eggs) [5]: 100%; efficacy in % ([8]; application rate 500 g/ha): 100%; efficacy in % ([6]; application rate 500 g/ha): 100%; efficacy (kill in %) [7]: 100%

Which results are given for `Cn1nc(C(F)(F)C(F)(F)F)c(C(F)(F)F)c1-n1cc(-c2ccc(Br)c(C(=O)NC3(C#N)CC3)c2)cn1` [Ic-34]?
efficacy (laying of fertile eggs) [2]: 100%; logP [3, 9]: 3.74; efficacy in % ([4]; application rate 100 g/ha): 100%; efficacy (laying of fertile eggs) [5]: 100%; efficacy in % ([8]; application rate 100 g/ha): 90%; efficacy in % ([6]; application rate 100 g/ha): 100%; efficacy (kill in %) [7]: 100%

For `Cn1nc(C(F)(F)C(F)(F)F)c(C(F)(F)F)c1-n1ccc(-c2ccc(Cl)c(C(=O)NC3CC3)c2)c1` [Ia-2], which “efficacy (dead or moribund ticks)” value ([1]; application rate 1 μg/cm^2) is on record?
The value was 100%.

And the “efficacy (dead or moribund ticks)” value ([1]; application rate 5 μg/cm^2)?
The value was 100%.

What about the “efficacy (laying of fertile eggs)” value [2] of the same compound?
The value was 100%.

What about the logP [3, 10] of the same compound?
The logP was 4.08.

And the efficacy in % ([4]; application rate 100 g/ha)?
Its efficacy in % is 90%.

And the “efficacy (laying of fertile eggs)” value [5]?
Its value is 100%.

What about the efficacy in % ([6]; application rate 100 g/ha) of the same compound?
Its efficacy in % is 100%.

And the “efficacy (kill in %)” value [7]?
Its value is 100%.
